Experimental data from ChEMBL document CHEMBL3425496, “Exploring experimental and computational markers of cyclic peptides: Charting islands of permeability” (Eur J Med Chem, 2015).
Square brackets hold non-standard residues; d marks the D form. Peptide text beside a SMILES is read from it. NMeY = CN[C@@H](Cc1ccc(O)cc1)C(=O)O; NMeT = CN[C@H](C(=O)O)[C@@H](C)O; NMeL = CN[C@@H](CC(C)C)C(=O)O; Sar = CNCC(=O)O

What was measured:
[1] = Apparent permeability from apical to basolateral side in human Caco2 cells by LC-MS analysis; type: ADME, cell-based; settings: Caco-2
[2] = Apparent permeability of the compound at 50 uM after 5 hrs by PAMPA method; type: physicochemical

| Papp A→B [1] | Papp at 5 h, 50 µM [2] | SMILES |
| --- | --- | --- |
| 0.24 ×10⁻⁶ cm/s | 0.37 ×10⁻⁶ cm/s | CC(C)C[C@@H]1NC(=O)[C@H](C(C)C)NC(=O)[C@H](Cc2c[nH]c3ccccc23)NC(=O)[C@H](Cc2ccccc2)NC(=O)[C@H](Cc2ccccc2)NC(=O)[C@@H]2CCCN2C1=O (cyclo(FFWVLP)) |
| 0.1 ×10⁻⁶ cm/s | 0.1 ×10⁻⁶ cm/s | CC(C)C[C@@H]1NC(=O)[C@H](Cc2ccccc2)NC(=O)CN(C)C(=O)[C@H](CC(C)C)N(C)C(=O)[C@H](Cc2ccc(O)cc2)NC(=O)[C@@H]2CCCN2C1=O (cyclo(FLPY[NMeL][Sar])) |
| 0.04 ×10⁻⁶ cm/s | 0.02 ×10⁻⁶ cm/s | CC(C)C[C@@H]1NC(=O)[C@H](Cc2ccccc2)NC(=O)[C@H]([C@@H](C)O)NC(=O)CNC(=O)[C@H]([C@@H](C)O)NC(=O)[C@H](Cc2ccc(O)cc2)NC1=O (cyclo(FLYTGT)) |
| 0.17 ×10⁻⁶ cm/s | 0.02 ×10⁻⁶ cm/s | CC(C)C[C@@H]1NC(=O)[C@H](Cc2ccccc2)NC(=O)[C@H]([C@@H](C)O)NC(=O)CN(C)C(=O)[C@H]([C@@H](C)O)NC(=O)[C@H](Cc2ccc(O)cc2)NC1=O (cyclo(FLYT[Sar]T)) |
| 0.1 ×10⁻⁶ cm/s | 0.01 ×10⁻⁶ cm/s | CC(C)C[C@@H]1NC(=O)[C@H](Cc2ccccc2)NC(=O)[C@H]([C@@H](C)O)N(C)C(=O)CN(C)C(=O)[C@H]([C@@H](C)O)NC(=O)[C@H](Cc2ccc(O)cc2)NC1=O (cyclo(FLYT[Sar][NMeT])) |
| 0.11 ×10⁻⁶ cm/s | 0.04 ×10⁻⁶ cm/s | CC(C)C[C@@H]1NC(=O)[C@H](Cc2ccccc2)NC(=O)[C@H]([C@@H](C)O)NC(=O)CNC(=O)[C@H](C(C)C)NC(=O)[C@H](Cc2ccc(O)cc2)NC1=O (cyclo(FLYVGT)) |
| 0.06 ×10⁻⁶ cm/s | 0.01 ×10⁻⁶ cm/s | CC[C@H](C)[C@@H]1NC(=O)[C@H](Cc2ccc(O)cc2)NC(=O)[C@H](Cc2ccccc2)NC(=O)CNC(=O)[C@H](C(C)C)NC(=O)CNC1=O (cyclo(FYIGVG)) |
| 0.11 ×10⁻⁶ cm/s | 0.01 ×10⁻⁶ cm/s | CC(C)C[C@@H]1NC(=O)CNC(=O)[C@@H]2CCCN2C(=O)[C@H](Cc2ccc(O)cc2)NC(=O)[C@H](Cc2ccccc2)NC(=O)[C@@H]2CCCN2C1=O (cyclo(FYPGLP)) |
| 9.13 ×10⁻⁶ cm/s | 1.29 ×10⁻⁶ cm/s | CC(C)C[C@@H]1NC(=O)[C@@H](CC(C)C)NC(=O)[C@H](CC(C)C)NC(=O)[C@H](Cc2ccc(O)cc2)N(C)C(=O)[C@H]2CCCN2C(=O)[C@H](CC(C)C)NC1=O (cyclo(LL[dP][NMeY]L[dL])) |
| 7.83 ×10⁻⁶ cm/s | 0.76 ×10⁻⁶ cm/s | CC(C)C[C@@H]1NC(=O)[C@H](Cc2ccc(O)cc2)NC(=O)[C@H]2CCCN2C(=O)[C@H](CC(C)C)NC(=O)[C@H](CC(C)C)N(C)C(=O)[C@@H](CC(C)C)NC1=O (cyclo(L[dL][NMeL]L[dP]Y)) |
